Data published in patent publication US10532053B2, “Histone deacetylase inhibitor, and preparation method and use thereof” (GUANGDONG ZHONGSHENG PHARMACEUTICAL CO., LTD, priority 2015, dated 2020).
Where two headings read alike, the source gives them in different places.

Tests used:
[1] = molecular target: T1, HDAC6 (Homo sapiens, UniProt Q9UBN7); experiment: HDAC inhibitory activity, fluorescence-coupled acetylated peptide substrate assay; type: biochemical; settings: for Selection Ratio HDAC1/6: ratio of IC50 HDAC1 to HDAC6; for Selection Ratio HDAC8/6: ratio of IC50 HDAC8 to HDAC6
T1 sequence (Q9UBN7 1-1215): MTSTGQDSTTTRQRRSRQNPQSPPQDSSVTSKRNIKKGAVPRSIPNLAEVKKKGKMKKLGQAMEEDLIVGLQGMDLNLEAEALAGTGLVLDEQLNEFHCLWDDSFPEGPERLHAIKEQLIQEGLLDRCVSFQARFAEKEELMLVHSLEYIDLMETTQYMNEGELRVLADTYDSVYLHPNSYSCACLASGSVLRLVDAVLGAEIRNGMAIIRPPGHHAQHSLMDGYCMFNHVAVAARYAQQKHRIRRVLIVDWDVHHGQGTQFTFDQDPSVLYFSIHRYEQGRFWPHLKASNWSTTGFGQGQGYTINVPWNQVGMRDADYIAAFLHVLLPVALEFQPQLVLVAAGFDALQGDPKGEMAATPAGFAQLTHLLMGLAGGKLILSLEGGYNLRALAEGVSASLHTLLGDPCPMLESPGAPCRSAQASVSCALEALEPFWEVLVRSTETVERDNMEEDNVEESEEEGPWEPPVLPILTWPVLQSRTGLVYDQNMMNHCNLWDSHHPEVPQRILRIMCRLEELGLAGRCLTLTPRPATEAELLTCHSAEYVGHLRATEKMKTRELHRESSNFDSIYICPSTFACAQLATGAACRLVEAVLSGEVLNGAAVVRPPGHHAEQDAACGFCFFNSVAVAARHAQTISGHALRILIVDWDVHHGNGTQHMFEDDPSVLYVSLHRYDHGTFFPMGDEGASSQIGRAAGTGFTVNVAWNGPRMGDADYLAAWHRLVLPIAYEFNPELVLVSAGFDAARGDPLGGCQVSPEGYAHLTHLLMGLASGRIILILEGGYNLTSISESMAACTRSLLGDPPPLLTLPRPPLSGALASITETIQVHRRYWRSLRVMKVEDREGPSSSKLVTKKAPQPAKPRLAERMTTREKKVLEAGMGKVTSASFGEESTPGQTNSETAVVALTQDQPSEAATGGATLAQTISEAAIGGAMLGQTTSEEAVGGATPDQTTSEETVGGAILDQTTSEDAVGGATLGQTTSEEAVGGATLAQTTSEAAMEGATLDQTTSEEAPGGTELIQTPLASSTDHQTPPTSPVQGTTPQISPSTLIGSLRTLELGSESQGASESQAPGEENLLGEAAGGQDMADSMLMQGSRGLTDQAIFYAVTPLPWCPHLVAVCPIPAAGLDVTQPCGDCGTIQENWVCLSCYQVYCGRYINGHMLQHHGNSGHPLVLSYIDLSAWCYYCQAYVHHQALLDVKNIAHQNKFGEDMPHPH
Experimental: (§2) The HDAC inhibitory activity was determined by fluorescence-coupled acetylated peptide substrate assay (Lys-Ac-AMC). HDAC1 protein was purchased from BPS Bioscience, and the reaction buffer system was a modified tris(hydroxymethyl)aminomethane buffer (pH 7.0). The small molecule compounds of the present invention were prepared by being dissolved in 100% DMSO. HDAC was prepared in a buffer at a certain concentration as an enzyme solution; trypsin and fluorescent group 4-amino-7-coumarin coupled-acetylated peptide (Ac-peptide) substrate were prepared in a buffer at a certain concentration as a substrate solution. The compounds were added into the reaction wells in a 384-well plate at a designed concentration of 10 μM, 1 μM, 0.5 μM, 0.1 μM, 0.05 μM, 0.01 μM, 0.005 μM, 0.001 μM, and 0.00005 μM, respectively, and then 15 μl of the HDAC solution was added into the reaction wells (15 μl of blank buffer to the control well). […] The results were analyzed by GraphPad Prism software and IC50 values were calculated according to the formula: Y=Background Data+(Top Data−Background Data)/(1+10^((Log IC50−X) a curve slope)), where Y: the inhibition rate (%) and X: the concentration of the compound.

[2] = system: Human cervical cancer cell Hela; experiment: Cell proliferative activity (MTT / cck-8); type: cell-based; settings: incubated for 96 hours, read-out: Half-Inhibitory Concentration IC50 Human cervical cancer cell Hela
Experimental: (§1) Tumor cell line A375: human melanoma cell; H460: lung adenocarcinoma cell; Hela: human cervical cancer cell; HepG2: human liver cancer cell; and SKOV-3: human ovarian cancer cell, were all purchased from ATCC and cultured to logarithmic phase according to the cultivation protocol recommended by ATCC. The cells in the logarithmic phase were plated onto a 96-well plate at 2000-3000 cells/well; in the case of adherent cells, the cells should be adherent to the wall. […] After that, the cell proliferative activity was determined by MTT assay for the tumor cells representing the solid tumor model and by cck-8 assay for the tumor cells representing the hematologic tumor model.

[3] = system: Human melanoma A375; experiment: Cell proliferative activity (MTT / cck-8); type: cell-based; settings: A-375, incubated for 96 hours, read-out: Half-Inhibitory Concentration IC50 Human melanoma A375
Experimental: as §1

[4] = system: Human lung cancer cell H460; experiment: Cell proliferative activity (MTT / cck-8); type: cell-based; settings: NCI-H460, incubated for 96 hours, read-out: Half-Inhibitory Concentration IC50 Human lung cancer cell H460
Experimental: as §1

[5] = system: Human liver cancer cell HepG2; experiment: Cell proliferative activity (MTT / cck-8); type: cell-based; settings: incubated for 96 hours, read-out: Half-Inhibitory Concentration IC50 Human liver cancer cell HepG2
Experimental: as §1

[6] = system: Human ovarian cancer cell SKOV-3; experiment: Cell proliferative activity (MTT / cck-8); type: cell-based; settings: SK-OV-3, incubated for 96 hours, read-out: Half-Inhibitory Concentration IC50 Human ovarian cancer cell SKOV-3
Experimental: as §1

[7] = molecular target: T2, HDAC8 (Homo sapiens, UniProt Q9BY41); experiment: HDAC inhibitory activity, fluorescence-coupled acetylated peptide substrate assay
T2 sequence (Q9BY41 1-377): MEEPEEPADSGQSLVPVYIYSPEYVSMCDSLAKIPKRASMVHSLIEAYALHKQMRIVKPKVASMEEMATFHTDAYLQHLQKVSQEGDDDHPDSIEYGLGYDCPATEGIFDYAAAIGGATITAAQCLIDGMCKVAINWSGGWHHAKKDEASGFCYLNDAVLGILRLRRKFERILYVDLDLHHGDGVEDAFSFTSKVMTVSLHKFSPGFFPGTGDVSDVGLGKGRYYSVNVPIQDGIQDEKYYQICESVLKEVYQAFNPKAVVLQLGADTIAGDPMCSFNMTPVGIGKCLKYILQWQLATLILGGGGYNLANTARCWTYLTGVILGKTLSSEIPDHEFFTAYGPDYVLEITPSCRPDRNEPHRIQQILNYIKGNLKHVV
Experimental: as §2

[8] = molecular target: T3, HDAC1 (Homo sapiens, UniProt Q13547); experiment: HDAC inhibitory activity, fluorescence-coupled acetylated peptide substrate assay (Lys-Ac-AMC); type: biochemical
T3 construct: purchased BPS Bioscience
T3 sequence (Q13547 whole entry): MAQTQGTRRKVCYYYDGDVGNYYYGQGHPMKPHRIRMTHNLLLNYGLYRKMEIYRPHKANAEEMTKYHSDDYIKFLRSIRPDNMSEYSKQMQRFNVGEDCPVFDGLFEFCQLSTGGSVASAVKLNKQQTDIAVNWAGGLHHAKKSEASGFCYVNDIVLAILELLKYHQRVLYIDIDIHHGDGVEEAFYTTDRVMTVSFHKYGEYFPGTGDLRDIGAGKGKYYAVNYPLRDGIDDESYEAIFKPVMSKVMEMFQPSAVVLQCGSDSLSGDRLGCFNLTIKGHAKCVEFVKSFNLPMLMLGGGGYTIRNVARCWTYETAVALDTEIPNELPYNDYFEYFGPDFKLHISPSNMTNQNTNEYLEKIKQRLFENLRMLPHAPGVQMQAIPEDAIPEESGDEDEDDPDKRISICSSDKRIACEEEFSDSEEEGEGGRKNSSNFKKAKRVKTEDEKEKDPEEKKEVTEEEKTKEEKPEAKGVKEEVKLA
Experimental: as §2

[9] = system: HCT116 cells; experiment: Therapeutic effect on the colon cancer HCT116 model (intravenous); settings: for survival time of mice: 9 times, vs blank control, P<0.01; for effect prolonging the survival time compared with positive control group: SAHA 50 mg/kg intraperitoneally
[10] = cited from earlier work

| Compound | IC50 ([1]; Table 2) [nM] | IC50 ([1]; Table 3) [nM] | Selection Ratio HDAC1/6 [1] | Selection Ratio HDAC8/6 [1] | IC50 [2] [nM] | IC50 [3] [nM] | IC50 [4] [nM] | IC50 [5] [nM] | IC50 [6] [nM] | IC50 ([7]; IC50 HDAC8, Table 2) [nM] | IC50 ([7]; read-out: IC50 HDAC8, Table 3) [nM] | IC50 ([8]; Table 2) [nM] | IC50 ([8]; Table 3) [nM] | also measured |
| --- | --- | --- | --- | --- | --- | --- | --- | --- | --- | --- | --- | --- | --- | --- |
| Cc1nc(N(C)c2ccc(OCCCC(=O)NO)cc2)c2ccccc2n1 [II-2, N-hydroxy-4-(4-(methyl(2-methyl-4-quinazolinyl)amino)phenoxy)butanamide] | 100 to 1000 | 196 | 0.4 | 7.5 | 100 to 1000 | 100 to 1000 | 100 to 1000 | 10 to 100 | 10 to 100 | > 1000 | 1460 | 10 to 100 | 84 | survival time of mice ([9]; 50 mg/kg intravenously once every other day): significantly prolonged the survival time of mice; effect prolonging the survival time compared with positive control group ([9]; 50 mg/kg intravenously): superior to that of the positive control group |
| COc1ccc(N(C)c2nc(C)nc3ccccc23)cc1OCC(=O)NO [III-1, N-hydroxy-2-(2-methoxy-5-(methyl(2-methyl-4-quinazolinyl)amino)phenoxy) acetamide] | > 1000 |  |  |  | < 10 | 10 to 100 | < 10 | < 10 | < 10 | > 1000 |  | > 1000 |  | survival time of mice ([9]; 10 mg/kg intravenously once every other day): significantly prolonged the survival time of mice; effect prolonging the survival time compared with positive control group ([9]; 10 mg/kg intravenously): superior to that of the positive control group |
| Cc1nc(N(C)c2ccc(Oc3ccc(C(=O)NO)cn3)cc2)c2ccccc2n1 [II-7, N-hydroxy-6-(4-(methyl(2-methyl-4-quinazolinyl)amino)phenoxy)nicotinamide] | < 10 | 5.8 | 110.0 | 218.1 | 100 to 1000 | 100 to 1000 | 100 to 1000 | 100 to 1000 | 100 to 1000 | > 1000 |  | 100 to 1000 | 638 | IC50 ([7]; IC50 HDAC8, Table 3): 1260 nM |
| COc1ccc(N(C)c2nc(C)nc3ccccc23)cc1OCCCCCC(=O)NO [III-4, N-hydroxy-6-(2-methoxy-5-(methyl(2-methyl-4-quinazolinyl)amino)phenoxy)hexanamide] | 10 to 100 |  |  |  | 100 to 1000 | 100 to 1000 | 100 to 1000 | 100 to 1000 | 100 to 1000 | > 1000 |  | 100 to 1000 |  |  |
| Cc1nc(N(C)c2ccc(OCCCCC(=O)NO)cc2)c2ccccc2n1 [II-3, N-hydroxy-5-(4-(methyl(2-methyl-4-quinazolinyl)amino)phenoxy)pentanamide] | 10 to 100 | 57 | 7.9 | 29.8 | > 1000 | > 1000 | 100 to 1000 | > 1000 | 100 to 1000 | > 1000 | 1700 | 100 to 1000 | 451 |  |
| CN(c1ccc(Oc2ccc(C(=O)NO)cn2)cc1)c1ncnc2ccccc12 [II-18, N-hydroxy-6-(4-(methyl(4-quinazolinyl)amino)phenoxy)nicotinamide] | 10 to 100 | 15 | 29.1 | 194.4 | 100 to 1000 | 100 to 1000 | 100 to 1000 | 100 to 1000 | 100 to 1000 | > 1000 |  | 100 to 1000 | 437 | IC50 ([7]; IC50 HDAC8, Table 3): 2920 nM |
| FK228 |  |  |  |  |  |  |  |  |  |  |  |  |  | incidence of medication-related adverse reactions above Phase III ([10]; clinical data): up to 66%; toxic side effects ([10]; clinical data): cardiotoxicity |
| Nc1ccccc1NC(=O)c1ccc(CNC(=O)OCc2cccnc2)cc1 [Entinostat] |  |  |  |  |  |  |  |  |  |  |  |  |  | elimination half-life in human body ([10]; human, clinical trials): ~100 h |
| CN(c1ccc(OCCCCC(=O)NO)cc1)c1ncnc2ccccc12 [II-14, N-hydroxy-5-(4-(methyl(4-quinazolinyl)amino)phenoxy)pentanamide] | 10 to 100 | 49 | 4.1 | 27.1 | > 1000 | > 1000 | > 1000 | > 1000 | > 1000 | > 1000 | 1330 | 100 to 1000 | 203 |  |
